Consider five compounds from patent publication US20160051513A1, “USE OF 4-BENZAMIDE IN THE TREATMENT OF NEUROPATHIC PAIN” (LES LABORATOIRES SERVIER, priority 2013, published 2016).

Data set [1] relates to mechanical hyperalgesia caused by chronic constriction (CCI) of the sciatic nerve. The data set is described as follows: Mechanical hyperalgesia (vocalisation threshold) in CCI model, compound and agomelatine on their own or in association. Type of data set: in vivo, rat. As to conditions: every day for 5 days, S 0.3 mg of base/kg per os, agomelatine 10 mg/kg i.p., alone or in association. As for the experimental part: The effects of 4-{3-[cis-hexahydrocyclopenta[c]pyrrol-2(1H)-yl]propoxy}benzamide and agomelatine, administered on their own or in association, were studied on the mechanical hyperalgesia caused in the rat by chronic constriction (CCI) of the sciatic nerve (see Example B).
The vocalisation threshold was measured in the animals every day for 5 days, before and 45 minutes after the administration of 4-{3-[cis-hexahydrocyclopenta[c]pyrrol-2(1H)-yl]-propoxy}benzamide hydrochloride at a dose of 0.3 mg of base/kg per os (the compound being referred to as S in FIG. 4) and agomelatine at a dose of 10 mg/kg i.p., on their own or in association.

The test system of data set [2] is model of diabetic neuropathy caused by streptozocin (STZ). The data set can be described thus: Mechanical hyperalgesia (paw pressure vocalisation threshold) in model of diabetic neuropathy caused by streptozocin. Type of data set: in vivo, rat. The settings on record: for effect of reference treatments compared with the compound: STZ rats. As for the experimental part:
The effects of 4-{3-[cis-hexahydrocyclopenta[c]pyrrol-2(1H)-yl]propoxy}benzamide and of two reference treatments for neuropathic pain (gabapentin and pregabalin) were studied in the rat, in the model of diabetic neuropathy caused by streptozocin (STZ).
In rats, administration of high-dose STZ (>35 mg/kg) causes diabetes which is similar to hyperglycaemic diabetes mellitus in humans. This is brought about by histopathological changes in the beta cells of islets of Langerhans and is associated with neuropathic pain. This pain is made manifest especially by mechanical hyperalgesia which can be attested by the lowering of the animal's vocalisation threshold when an increasing pressure is applied to the paw (Courteix et al., Pain, 1993, 53(1):81-8). During the test, a weight is placed on the rat's paw; its weight (in grams) increases until the animal vocalises. In this experiment, 21 days after the intraperitoneal injection of STZ (72 mg/kg), the rats develop diabetes characterised especially by hyperglycaemia (controlled during the experiment by injection of insulin) and associated with mechanical hyperalgesia. Indeed, the vocalisation threshold of the rats is lowered by half compared to the threshold which those animals had prior to injection of STZ (FIG. 1).

Data set [3] deals with depression associated with the neuropathic pain caused by CCI. The data set can be described thus: Depression associated with neuropathic pain caused by CCI (duration of immobility in cylinder filled with water). Type of data set: in vivo. The settings on record: CCI rat, 4 weeks after constriction. The procedure:
The effects of 4-{3-[cis-hexahydrocyclopenta[c]pyrrol-2(1H)-yl]propoxy}benzamide were studied on the depression associated with the neuropathic pain caused by CCI in the rat. In this study, the rat is placed for 5 minutes in a cylinder filled with water, out of which it is unable to climb. After struggling in the water, the animal becomes immobile, reflecting “behavioural despair”, which occurs when the animal realises that it will not be able to escape. Depressive behaviour is measured in this test by the duration of immobility.

Data set [4] concerns anxiety associated with the neuropathic pain caused by chronic constriction (CCI) of the sciatic nerve. The data set can be described thus: Anxiety associated with neuropathic pain caused by CCI (time in open parts of cylindrical corridor). Type of data set: in vivo. As to conditions: CCI rat, 4 weeks after constriction. As for the experimental part: The effects of 4-{3-[cis-hexahydrocyclopenta[c]pyrrol-2(1H)-yl]propoxy}benzamide were studied on the anxiety associated with the neuropathic pain caused by chronic constriction (CCI) of the sciatic nerve in the rat.
In this study, the rats are placed for 5 minutes in a cylindrical corridor which has two parts closed off by a wall and two opposite parts which are open. The test creates a conflict between the rodent's natural desire to explore and its fear of open spaces which make it vulnerable to predators. Anxiety is measured in this test by the time spent by the rat in exploring the open parts of the cylindrical corridor (Bleickardt et al. Psychopharmacology (Berl), 2009, 202(4):711-8; Alba-Delgado et al. Biol. Psychiatry, 2013, 73(1):54-62).

Data set [5] in a line: Clinical acceptability profile. Type of data set: in vivo, human.
Data set [6] relates to thermal allodynia after administration of oxaliplatin (OXA). The data set is described as follows: Thermal (cold) allodynia, tail withdrawal time in cold bath at 10° C, model of neuropathy caused by oxaliplatin. In kind it is in vivo, rat. The settings on record: for reversal of the allodynia (tail withdrawal time versus before the procedure): oxaliplatin 6 mg/kg i.p. From the text: The effects of 4-{3-[cis-hexahydrocyclopenta[c]pyrrol-2(1H)-yl]propoxy}benzamide and of two reference treatments for neuropathic pain (gabapentin and pregabalin) were studied on the thermal allodynia which occurs in rats after administration of oxaliplatin (OXA). Oxaliplatin is a synthetic anticancer medication from the group of agents derived from platinum, especially used in the treatment of cancers of the colon and rectum.
In the rat, acute administration of oxaliplatin specifically causes cold hyperalgesia and allodynia in the subsequent 24 hours, which lasts for several days. This animal model therefore closely mimics the painful symptoms observed in humans after infusion of oxaliplatin, especially the rapid appearance of intense sensory disturbances caused by cold, of the hyperalgesic and allodynic type (Ling et al. Toxicology. 2007; 234(3):176-84).
The results of this study confirm that, 36 hours after acute intraperitoneal administration of oxaliplatin (6 mg/kg), the rats develop cold allodynia, reflected by very rapid withdrawal of their tail when it is placed in a cold bath at 10° C. Indeed, this withdrawal time is, on average, half as long as that of the rats before administration of oxaliplatin (FIG. 3).

In data set [7] the test system is mechanical hyperalgesia caused by chronic constriction (CCI) of the sciatic nerve. The data set is described as follows: Mechanical hyperalgesia (vocalisation threshold) in model of neuropathy caused by chronic constriction (CCI) of the sciatic nerve. As to conditions: for reversal of the hyperalgesia (vocalisation threshold versus before the procedure): after 4 days of chronic treatment. In kind it is in vivo, rat. From the text: The effects of 4-{3-[cis-hexahydrocyclopenta[c]pyrrol-2(1H)-yl]propoxy}benzamide and of gabapentin were studied on the mechanical hyperalgesia caused in the rat by chronic constriction (CCI) of the sciatic nerve.
This model of post-traumatic neuropathic pain closely reproduces the symptoms of neuropathic pain which can be observed in humans, namely mechanical and thermal hyperalgesia, mechanical allodynia and spontaneous pain (Bennett and Xie, Pain, 1988, 33(1):87-107; Munger et al., Exp Neurol, 1992, 118(2):204-14; Kim et al., Brain Res, 1997, 113(2):200-6.).

Counter-ions that a name gives are not always drawn.

Take `COc1ccc2cccc(CCNC(C)=O)c2c1` [agomelatine, reference compound]: in data set [1], the “anti-hyperalgesic effect (vocalisation threshold), chronic administration” value was “moderate and very inconstant anti-hyperalgesic effect”.

As for `NC(=O)c1ccc(OCCCN2C[C@H]3CCC[C@H]3C2)cc1` [4-{3-[cis-hexahydrocyclopenta[c]pyrrol-2(1H)-yl]-propoxy}benzamide], the “beneficial effect on vocalisation threshold over time” value in data set [2] (administered every day for 5 days) is reported as “maintained over time”. Besides, the “effects on the depression associated with the neuropathic pain” value in data set [3] is recorded as “beneficial effects”. Moreover, the “effects on the anxiety associated with the neuropathic pain” value in data set [4] was “beneficial effects”. The acceptability profile entry in data set [5] (healthy volunteers) and in data set [5] (patients suffering from Alzheimer's disease) was “good acceptability profile” throughout.

Turning to `CC(C)C[C@H](CN)CC(=O)O` [pregabalin, reference compound], the “effect of reference treatments compared with the compound” value in data set [2] was “entirely comparable”. In addition, the “reversal of the allodynia (tail withdrawal time versus before the procedure)” value in data set [6] is “rapid reversal is also observed”.

Consider `NCC1(CC(=O)O)CCCCC1` [gabapentin, reference compound], for which the “effect of reference treatments compared with the compound” value in data set [2] was “entirely comparable”. For the same compound, the “reversal of the hyperalgesia (vocalisation threshold versus before the procedure)” value in data set [7] is “reversal is also observed”. In addition, the “reversal of the allodynia (tail withdrawal time versus before the procedure)” value in data set [6] is given as “rapid reversal is also observed”.

With `NC(=O)c1ccc(OCCCN2C[C@H]3CCC[C@H]3C2)cc1` [S, 4-{3-[cis-hexahydrocyclopenta[c]pyrrol-2(1H)-yl]propoxy}benzamide hydrochloride], the “anti-hyperalgesic effect (vocalisation threshold), chronic administration” value in data set [1] is on record as “moderate anti-hyperalgesic effect”. In data set [2] (3 mg of base per kg per os, from the second day of administration), the “value of the vocalisation threshold relative to non-diabetic animals” value was “the same as that of non-diabetic animals”. For the same compound, the “vocalisation threshold compared to animals having been given the carrier” value in data set [2] (STZ 72 mg/kg i.p., 21 days after, 3 mg of base per kg per os) was “substantial and significant increase in the vocalisation threshold”. In addition, in data set [7] (12 days after CCI, 1 mg of base/kg per os), the “anti-hyperalgesic effect (vocalisation threshold)” value is reported as “significant anti-hyperalgesic effect”. Moreover, in data set [7], the “reversal of the hyperalgesia (vocalisation threshold versus before the procedure)” value is recorded as “complete reversal of the hyperalgesia”. For the same compound, the “anti-allodynic effect (tail withdrawal time, cold bath 10° C)” value in data set [6] (36 hours after oxaliplatin 6 mg/kg i.p., 0.3 mg of base/kg per os, from D1, 1 hour after a single administration) is listed as “significant anti-allodynic effect”. Moreover, the “reversal of the allodynia (tail withdrawal time versus before the procedure)” value in data set [6] is listed as “complete reversal of the allodynia”.
